Values quoted from earlier work, collected in patent US20180035685A1, “ANTIMICROBIAL COMPOSITIONS” (priority 2015, published 2018).

Columns and labels:
[1] = stored in cold; applied at 300 ppm
[2] = tested on: Listeria; details: pure form; Mandalari et al. (2007)

Row | Compound | Antimicrobial effect on raw beef MAP meat [1] | Effect on Listerial growth in vitro [2]
1 | O=c1oc2c(O)c(O)cc3c(=O)oc4c(O)c(O)cc1c4c23 [ellagic acid] | no antimicrobial effect | 
2 | COc1ccc([C@@H]2CC(=O)c3c(O)cc(O[C@@H]4O[C@H](CO)[C@@H](O)[C@H](O)[C@H]4O[C@@H]4O[C@@H](C)[C@H](O)[C@@H](O)[C@H]4O)cc3O2)cc1O [neohesperidin] |  | no effect on Listerial growth
